Test results taken from patent US8343509B2, “Methods and compositions for detection of bacteria and treatment of diseases and disorders” (priority 2008, dated 2013).
Like-named read-outs stand apart in the source and are kept apart here.

Tests used:
[1] = tested on: Escherichia coli Nissle 1917 (EcN); assay: In vitro tracer uptake into E. coli Nissle culture (gamma counter); assay type: cell-based; conditions: 0.925 MBq tracer, culture grown at 37° C. for 4 hours
Experimental: An overnight culture of EcN was diluted 1:50 into 5 ml fresh LB-broth, supplemented with 0.925 MBq (25 μCi) of [^18F]-FDG or [^18F]-FEAU. The cultures were grown at 37° C. for 4 hours. The bacteria were harvested by centrifugation, washed twice with PBS and the radioactivity in the pelleted bacteria and medium was measured in a gamma counter (Packard, United Technologies, Downers Grove, Ill.).

E. coli Nissle [2] = conditions: for tumor-to-organ ratio, heart / tumor-to-organ ratio, liver / tumor-to-organ ratio, muscle: PET
Experimental: The in vivo uptake of [^18F]-FDG and [^18F]-FEAU by administered EcN bacteria was studied using a mouse tumor model and imaged by positron emission tomography (PET) scanning.
At two weeks post tumor cell implantation (tumor diameter >5 mm), the EcN bacteria (4×10^6 CFU in 100 μl PBS) were administered systemically by lateral tail vein injection into the tumor bearing mice. Control mice were injected with 100 μl PBS via tail vein.
Prior to tracer administration, [^18F]-FDG or [^18F]-FEAU, the animals were starved 12 h and kept under anesthesia between tracer injection and imaging. In the [^18F]-FDG experimental group of mice (n=6 for each time point), each animal was injected intravenously by tail vein with 9.25 MBq (250 μCi) of [^18F]-FDG at either 16 or 72 hours after administration of EcN. Control mice received 9.25 MBq (250 μCi) of [^18F]-FDG following administration of PBS. [^18F]-FDG FDG PET scanning was performed 1 h after tracer administration using a 10 minute list mode acquisition.
In the [^18F]-FEAU experimental group of mice (n=8 for each time point), each animal was injected intravenously by tail vein with 9.25 MBq (250 μCi) of [^18F]-FEAU at either 16 or 72 hours after administration of EcN. Control mice received 9.25 MBq (250 μCi) of [^18F]-FEAU following administration of 100 μl PBS. [^18F]-FDG PET scanning was performed 2 h after tracer administration using a 10 minute list mode acquisition.
Imaging was performed using a Focus 120 microPET™ dedicated small-animal PET scanner (Concorde Microsystems Inc, Knoxyille, Tenn.). Mice were maintained under 2% isofluorane anesthesia with an oxygen flow rate of 2 l/min during the entire scanning period. Three-dimensional (3D) list-mode data were acquired using an energy window of 350-700 keV for ^18F and 410-580 keV for ^124I, respectively and a coincidence timing window of 6 ns. […] Transverse images were reconstructed by filtered back-projection using a ramp filter with a cut-off frequency equal to the Nyquist frequency in a 128×128×94matrix comprised of 0.866×0.866×0.866-mm voxels. The image data were corrected for (a) non-uniformity of scanner response using a uniform cylinder source-based normalization, (b) dead time count losses using a singles count rate-based global correction, (c) physical decay to the time of injection, and (d) the ^124I branching ratio. There was no correction applied for attenuation, scatter or partial-volume averaging. The count rates in the reconstructed images were converted to activity concentration (% of injected dose per gram of tissue, % ID/g) using a system calibration factor (μCi/ml/cps/voxel) derived from imaging of a rat-size phantom filled with a uniform aqueous solution of ^18F.
PET image analysis was performed using ASIPro™ software (Concorde Microsystems Inc., Knoxyille, Tenn.). For each PET scan, regions of interest (ROIs) were manually drawn over tumor, liver, skeletal muscle and heart.

E. coli Nissle [3] = assay: In vivo [124I]-FIAU PET distribution over time in 4T1 xenograft mice
Experimental: Mice bearing 4T1 xenografts were generated as described in Example 2. Prior to intravenous administration of ^[124I]-FIAU, three mice were injected with EcN-bacteria and 3 mice with PBS (control). 37 MBq (1000 μCi) of [^124I]-FIAU was injected into each animal intravenously 72 h after bacterial injection. Potassium iodide was used to block the uptake of radioactive iodine by the thyroid. Imaging of [^124I]-FIAU uptake by PET was obtained 4, 8, 12, 24, 48 and 72 h after tracer administration with 10 minute list acquisition at the 4 h and 8 h imaging time points, 15 minute at the 12 h time point, 30 minute at 24 h time point and 60 minute at the 48 h and 72 h time points. After tracer administration and between imaging time points, the animals were allowed to awake and maintain normal husbandry.

E. coli Nissle [4] = conditions: in the absence of bacteria
Text: Using the data obtained in Example 2 for in vivo [^18F]-FEAU uptake, tumor radioactivity (% ID/g), corrected for background radioactivity, was plotted against the number of bacterial colony forming units per gram for each of the tumors imaged.

E. coli Nissle [5] = assay: [18F]-FEAU uptake by tissue sampling, tumor-to-organ radioactivity ratios; assay type: in vivo, mice; conditions: after EcN administration, p<0.02
Experimental: In vivo uptake of [^18F]-FEAU was measured in a separate experiment by measurement of tumor-to-organ (liver, spleen, heart and lung) [^18F]-FEAU radioactivity ratios via tissue sampling. […] Euthanized mice were rinsed with 100% ethanol prior to tissue removal. Organs, including liver, lung, spleen and heart, were sampled and weighed before radioactivity was measured. Tumor tissue was weighed and homogenized in 1 ml PBS. Serial dilutions of the homogenized sample were plated on L-arabinose containing LB-agar plates. […] The remaining tumor suspension and organ samples were assayed for radioactivity in a gamma counter (Packard, United Technologies, Downers Grove, Ill.). [^18F]-FEAU radioactivity (% ID/g) in the samples was determined and tumor-to-organ ratios calculated. To assess the correlation between radioactivity and scintillation counter measurements, the Pearson correlation coefficient was computed.

[6] = 4T1 tumors, without/prior to EcN injection
[7] = tracer 16 h after EcN injection
[8] = tracer 72 h after EcN injection

## OC[C@H]1OC(O)[C@H]([18F])[C@@H](O)[C@@H]1O (stereo partly drawn) [[^18F]-FDG, 2′-[^18F]fluoro-2′deoxy-D-glucose]
[1]
  enrichment of radioactivity within EcN-bacteria compared to the remaining LB-broth: 120 fold
E. coli Nissle [2]; 16 h after EcN injection
  enhancement of the tracer signal (tumor-to-organ ratios post-EcN vs pre-EcN): ~1.7 fold
E. coli Nissle [2]; 72 h after EcN injection
  enhancement of the tracer signal (tumor-to-organ ratios post-EcN vs pre-EcN): ~1.4 fold
E. coli Nissle [2]; [6]
  tumor-to-organ ratio, heart: 0.23±0.12
  tumor-to-organ ratio, liver: 1.6±0.4
  tumor-to-organ ratio, muscle: 3.3±0.7
E. coli Nissle [2]; [7]
  tumor-to-organ ratio, heart: 0.31±0.8
  tumor-to-organ ratio, liver: 2.6±0.5
  tumor-to-organ ratio, muscle: 5.4±1.1
E. coli Nissle [2]; [8]
  tumor-to-organ ratio, heart: 0.31±0.17
  tumor-to-organ ratio, liver: 2.2±0.8
  tumor-to-organ ratio, muscle: 4.3±1.2

## O=c1[nH]c(=O)n([C@@H]2O[C@H](CO)[C@@H](O)[C@@H]2F)cc1I [[^124I]-FIAU, 5-iodo-2′-fluoro-2′deoxy-1-β-D-arabino-furanosyl-uracil]
E. coli Nissle [3]; 4 and 8 h acquisition time points
  background radioactivity in PET images: very high background radioactivity
E. coli Nissle [3]; 48 and 72 h after tracer, EcN-treated animals
  tumor/background ratios: greater than 5
E. coli Nissle [3]; tracer 72 h after bacterial injection
  enrichment in the bacteria-treated tumors versus control tumors: 2.5 fold
E. coli Nissle [4]
  accumulation in 4T1 xenografts: low levels above background

## CCc1cn([C@@H]2O[C@H](CO)[C@@H](O)[C@@H]2[18F])c(=O)[nH]c1=O [[^18F]-FEAU, 2′-[^18F]fluoro-2′deoxy-1-β-D-arabinofuranosyl-5-ethyl-uracil]
[1]
  enrichment of radioactivity within EcN-bacteria compared to the remaining LB-broth: 6.5 fold
E. coli Nissle [5]
  tumor to organ ratio (liver, spleen, heart, lung) by tissue sampling: increased significantly
E. coli Nissle [2]; 16 h after EcN injection
  enhancement of the tracer signal (tumor-to-organ ratios post-EcN vs pre-EcN): ~1.6 fold
E. coli Nissle [2]; 72 h after EcN injection
  enhancement of the tracer signal (tumor-to-organ ratios post-EcN vs pre-EcN): ~2.1 fold
E. coli Nissle [2]; [6]
  tumor-to-organ ratio, heart: 1.4±0.3
  tumor-to-organ ratio, liver: 1.4±0.3
  tumor-to-organ ratio, muscle: 1.7±0.4
E. coli Nissle [2]; [7]
  tumor-to-organ ratio, heart: 2.1±0.6
  tumor-to-organ ratio, liver: 2.0±0.7
  tumor-to-organ ratio, muscle: 2.6±0.8
E. coli Nissle [2]; [8]
  tumor-to-organ ratio, heart: 2.9±0.8
  tumor-to-organ ratio, liver: 2.4±0.8
  tumor-to-organ ratio, muscle: 3.0±1.3
E. coli Nissle [2]; in the absence of EcN injection
  uptake in tumors: much lower than that of [^18F]-FDG
E. coli Nissle [4]
  accumulation in 4T1 xenografts: near background levels
